By Kd is commonly meant the free concentration of one partner at which half of the binding sites on the other are occupied at equilibrium, for simple one-to-one binding. As a reminder, the EC50 is the concentration that produces a half-maximal response.

Where two headings read alike, the source gives them in different places.

Data on one compound can be found in article PMC5563081, “Modulating Protein-Protein Interactions of the Mitotic Polo-like Kinases to Target Mutant KRAS” (Cell Chemical Biology, 2017).

One test has as its target PLK1 PBD (Homo sapiens, UniProt P53350). The test is described as follows: Isothermal titration calorimetry. Further details: In all titrations, PBDaa345-603 protein was used at 25 μM; GST (N, cleaved yes); made in house; host or cells: E. coli C41. The conditions noted are these: ITC, 20 °C. It is filed as binding. The method, then:
In all titrations, PBDaa345-603 protein was used at 25 μM and buffered in HEPES (50 mM, pH 7.4), NaCl (200 mM), and DTT (1mM). Protein was diluted into buffer with DMSO at 5% (v/v). Poloppin was prepared by diluting from DMSO stock into the same buffer containing DMSO at 5% (v/v). Great care was taken to match the concentration of DMSO in the ligand and protein samples as closely as possible. In a typical experiment, protein (25 μM) was loaded in the sample cell, and a total of 20 injections of 8μL were made at 2 min intervals from a 200 μL syringe rotating at 1000 rpm and loaded with ligand solution (0.5 mM). […] The thermodynamic parameters were obtained by fitting the data to a single-site binding model with a stoichiometry of 1. ITC experiments were performed at 20 °C with a MicroCal ITC200 instrument, and all data were analysed with the software implemented in Origin (version 7) ([Scott et al., 2015]).

Another test relates to HPAF II. The test is described as follows: Cell viability (SRB), HPAF II. It is filed as cell-based. The conditions noted are these: Homo sapiens, 72 h. The method, then:
SW48 Parental, SW48 G12D, Panc-1, HPAF-II, Panc 02.03 and Panc 05.04 cell lines were seeded overnight at 5000 cells per well in a 96 well plate in recommended media (ATCC). Compounds were added the following day and viability was measured at 72h using the sulforhodamine B (SRB) colorimetric assay as follows. Cells were fixed by replacing media with 1% v/v Trichloroacetic Acid (TCA) (Sigma-Aldrich) at 4°C and incubated for 1h also at 4°C. Wells were washed thoroughly with copious amounts of deionised water before staining with Sulforhodamine B (SRB) (Sigma-Aldrich) solution (0.057% w/v in 1% v/v Acetic Acid (VWR)) for 30 min. […] Fluorescence intensity was recorded at Ex540nm / Em590nm using a BMG Pherastar Plus plate reader ([Vichai and Kirtikara, 2006]).
Pancreatic organoids were extracted and cultured as detailed above ([Boj et al., 2015]). […] Full-grown organoids were then treated with compounds for 72h and viability determined using CellTitre Glo 3D assay (Promega). […] The 96 well plates were treated with a dose range of compounds or DMSO, and viability was determined via SRB colorimetric assay. […]
Cells were reverse-transfected with 50nM (SW48 parental, SW48 KRAS G12D and Panc-1) or 25nM (HeLa Flp-In T-REx parental cells) siRNA using Dharmafect (GE Dharmacon) as manufacturer’s recommendations. […] Viability was assessed after 72 hrs, with the SRB colorimetric assay. […]

A further test has as its system HCT116 KRAS G13D cells. The test is described as follows: Development of drug resistance under continuous treatment. The test is classed as cell-based, human. To be noted: continuous treatment at 5x GI50. The method, then:
HCT116 wild-type cells (Horizon Discovery Ltd.) cultured in McCoy's 5A (Life Technologies #26600) medium supplemented with 10% Foetal Calf Serum (Life Technologies #10270) were treated on three occasions with titrations of the PLK1 ATP-competitive inhibitor BI 2536 (Selleckchem #S1109) or Poloppin in order to determine the 2.5x GI50, 3x GI50 and 5x GI50 values for each compound required to initiate the development of resistance. Cells were subsequently treated with 2.5x GI50, 3x GI50 and 5x GI50 concentrations of either compound, changing media and compound every three to four days until resistant colonies emerged or no viable cells remained. Single cell clones were isolated from cells resistant to 5x GI50 BI 2536. Equivalent experiments using 3x GI50 or 2.5x GI50 doses of Poloppin or BI2536 yielded identical results (data not shown). BI 2536-resistant clones (HCT116 BI 2536-Res. Clones) were treated with BI2536 or Poloppin, alongside drug-sensitive parental HCT116 cells (HCT116 wt), and viability was assessed after 72 h. Viability is represented as percentage survival normalised to DMSO control. […]

Chain of PLK1 PBD (P53350 345-603): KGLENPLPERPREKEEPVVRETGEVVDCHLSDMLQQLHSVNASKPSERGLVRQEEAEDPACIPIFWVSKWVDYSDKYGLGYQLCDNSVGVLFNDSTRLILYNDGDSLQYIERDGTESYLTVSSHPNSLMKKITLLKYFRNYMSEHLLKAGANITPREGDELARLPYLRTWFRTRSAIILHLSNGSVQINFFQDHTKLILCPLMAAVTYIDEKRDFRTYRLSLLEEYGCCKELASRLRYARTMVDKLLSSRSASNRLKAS

As for `O=C(O)CCc1ccc(-c2ccc(Br)cc2)n1-c1ccccc1C(F)(F)F` [Poloppin], the Kd on PLK1 PBD stood at 29.5 µM. The EC50 came out at 12.4 ± 1.08 µM with HPAF II (read-out: EC50, % survival, HPAF II, All Stars control siRNA, 72 h) and 5.6 ± 1.05 µM in the test on HPAF II (read-out: EC50, % survival, HPAF II, siMET, 72 h). Also, the “acquisition of drug resistance” value in the test with HCT116 KRAS G13D cells was “undetectable”.
